ChEMBL document CHEMBL2074532, “P-glycoprotein increases the efflux of the androgen dihydrotestosterone and reduces androgen responsive gene activity in prostate tumor cells” (Prostate, 2004)

Molecular target: ATP-dependent translocase ABCB1 (Homo sapiens, UniProt P08183)
Test: TP_TRANSPORTER: cell accumulation in P-gp transfected LNCaP cells
Assay type: functional, cell-based

Chain of ATP-dependent translocase ABCB1 (P08183 whole entry): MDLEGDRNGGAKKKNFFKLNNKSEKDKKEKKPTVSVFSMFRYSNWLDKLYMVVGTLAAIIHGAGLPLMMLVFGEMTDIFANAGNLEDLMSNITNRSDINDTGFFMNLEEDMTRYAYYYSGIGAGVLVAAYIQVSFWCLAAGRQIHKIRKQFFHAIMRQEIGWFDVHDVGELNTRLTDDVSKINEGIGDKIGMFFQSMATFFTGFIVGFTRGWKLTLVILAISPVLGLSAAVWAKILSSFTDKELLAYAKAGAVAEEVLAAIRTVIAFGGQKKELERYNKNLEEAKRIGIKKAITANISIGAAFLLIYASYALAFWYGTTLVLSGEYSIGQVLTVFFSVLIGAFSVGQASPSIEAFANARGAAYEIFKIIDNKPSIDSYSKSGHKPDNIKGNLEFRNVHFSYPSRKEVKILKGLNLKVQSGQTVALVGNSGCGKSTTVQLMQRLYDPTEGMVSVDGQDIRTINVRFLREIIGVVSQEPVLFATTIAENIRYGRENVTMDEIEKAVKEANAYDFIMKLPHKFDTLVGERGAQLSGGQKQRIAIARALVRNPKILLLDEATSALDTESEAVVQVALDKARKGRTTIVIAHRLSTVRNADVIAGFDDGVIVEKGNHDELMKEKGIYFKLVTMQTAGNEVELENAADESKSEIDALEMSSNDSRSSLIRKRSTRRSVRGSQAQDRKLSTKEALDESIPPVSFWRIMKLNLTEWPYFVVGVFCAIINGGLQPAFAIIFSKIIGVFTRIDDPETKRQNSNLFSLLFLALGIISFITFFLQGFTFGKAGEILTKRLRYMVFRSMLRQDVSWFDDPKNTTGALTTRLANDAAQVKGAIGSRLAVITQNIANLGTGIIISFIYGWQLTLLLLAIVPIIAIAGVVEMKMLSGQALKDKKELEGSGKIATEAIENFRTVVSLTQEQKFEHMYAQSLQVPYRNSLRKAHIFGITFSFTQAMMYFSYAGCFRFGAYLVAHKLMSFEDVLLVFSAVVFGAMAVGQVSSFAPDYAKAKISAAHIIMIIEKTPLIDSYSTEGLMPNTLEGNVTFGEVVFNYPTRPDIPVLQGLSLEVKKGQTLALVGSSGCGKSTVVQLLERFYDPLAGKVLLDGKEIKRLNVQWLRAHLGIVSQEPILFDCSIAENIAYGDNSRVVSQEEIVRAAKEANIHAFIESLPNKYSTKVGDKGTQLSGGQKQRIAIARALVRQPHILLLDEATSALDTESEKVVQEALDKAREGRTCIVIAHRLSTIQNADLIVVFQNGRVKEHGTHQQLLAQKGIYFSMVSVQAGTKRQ

With `C[C@]12CCC(=O)C[C@@H]1CC[C@@H]1[C@@H]2CC[C@]2(C)[C@@H](O)CC[C@@H]12` [STANOLONE] the Activity was “substrate [+]”.

`CC[C@]1(O)C[C@@H]2CN(CCc3c([nH]c4ccccc34)[C@@](C(=O)OC)(c3cc4c(cc3OC)N(C)[C@H]3[C@@](O)(C(=O)OC)[C@H](OC(C)=O)[C@]5(CC)C=CCN6CC[C@]43[C@@H]65)C2)C1` [VINBLASTINE] was tested, and the Activity was “substrate [+]”.
